From patent publication US20260092057A1, “BCL-XL/BCL-2 DEGRADERS AND USES THEREOF” (Kymera Therapeutics, Inc., priority 2022, published 2026)

Legend:
Assay type in all cases: cell-based
BCL-XL = target: T1, BCL-XL (Homo sapiens, UniProt Q07817); assay: BCL-XL degradation assay in MOLT-4 cells (ELISA, 6 h); conditions: for DC50: read-out: Bcl-xL ELISA in MOLT-4 degradation 6 h: External Abs-DC50
T1 construct: BCL-XL degradation results in MOLT-4 cells for compounds of the invention; endogenous in cells; host or cells: MOLT-4

MOLT-4 cells = assay: CTG (CellTiter-Glo) cell viability assay, MOLT-4; conditions: Homo sapiens, MOLT-4, 72 h, MOLT-4, 3 day; read-out: CTG Cell Viability Assay - MOLT-4 3 day: Average external-IC50
How it was run: (§1)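 Viability read by CellTiter-Glo luminescence after 3 days' compound exposure at 37 °C under 5% CO2, with 10,000 cells per well. Dosing was nine 1:3 dilutions starting at 10 µM, DMSO normalized to 0.2%; IC50 values come from three-parameter logistic curve fitting.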

Caki-2 cells = assay: CTG (CellTiter-Glo) cell viability assay, Caki-2; conditions: Homo sapiens, CAKI-2, 72 h, Caki-2, 3-day; read-out: CTG Chempartner/PHA- Caki-2 3-day: Average external-IC50
How it was run: as §1

T1 sequence (Q07817 whole entry): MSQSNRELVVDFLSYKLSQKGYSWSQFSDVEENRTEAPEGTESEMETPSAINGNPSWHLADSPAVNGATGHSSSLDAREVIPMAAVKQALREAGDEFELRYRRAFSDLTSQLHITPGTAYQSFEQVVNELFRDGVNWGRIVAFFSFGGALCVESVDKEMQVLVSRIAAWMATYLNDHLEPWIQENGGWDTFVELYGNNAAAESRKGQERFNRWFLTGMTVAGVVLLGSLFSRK

Dmax (BCL-XL) [%]	DC50 (BCL-XL) [nM]	IC50 (MOLT-4 cells) [nM]	SMILES	IC50 (Caki-2 cells) [nM]
50 to 75	10 to 100	< 100	Cc1ncsc1-c1ccc([C@H](C)NC(=O)[C@@H]2C[C@@H](O)CN2C(=O)[C@@H](NC(=O)CCCCCCC(=O)N2CCN(CC[C@H](CSc3ccccc3)Nc3ccc(S(=O)(=O)NC(=O)c4ccc(N5CCC([C@@H](O)c6ccccc6-c6ccc(Cl)cc6)CC5)cc4)cc3S(=O)(=O)C(F)(F)F)CC2)C(C)(C)C)cc1 [I-120]	10000 to 30000
> 75	10 to 100	< 100	C#Cc1ccc([C@H](CO)NC(=O)[C@@H]2C[C@@H](O)CN2C(=O)[C@@H](NC(=O)CCCCCC(=O)N2CCN(CC[C@H](CSc3ccccc3)Nc3ccc(S(=O)(=O)NC(=O)c4ccc(N5CCN([C@@H](O)c6ccccc6-c6ccc(Cl)cc6)CC5)cc4)cc3S(=O)(=O)C(F)(F)F)CC2)C(C)(C)C)cc1 [I-135]	10000 to 30000
> 75	< 10	< 100	Cc1ncsc1-c1ccc([C@H](C)NC(=O)[C@@H]2C[C@@H](O)CN2C(=O)[C@@H](NC(=O)CCCCCC(=O)N2CCN(CC[C@H](CSc3ccccc3)Nc3ccc(S(=O)(=O)NC(=O)c4ccc(N5CCN([C@@H](O)c6ccccc6-c6ccc(Cl)cc6)CC5)cc4)cc3S(=O)(=O)C(F)(F)F)CC2)C(C)(C)C)cc1 [I-121]	10000 to 30000

The next lines start with the compound.

SMILES	Dmax (BCL-XL) [%]	DC50 (BCL-XL) [nM]	IC50 (MOLT-4 cells) [nM]	IC50 (Caki-2 cells) [nM]
C#Cc1ccc([C@H](C)NC(=O)[C@@H]2C[C@@H](O)CN2C(=O)[C@@H](NC(=O)CCCCCC(=O)N2CCN(CCCNc3ccc(S(=O)(=O)NC(=O)c4ccc(N5CCN(CC6=C(c7ccc(Cl)cc7)CC(C)(C)CC6)CC5)cc4Oc4cnc5[nH]ccc5c4)cc3S(=O)(=O)C(F)(F)F)CC2)C(C)(C)C)cc1F [I-105]	50 to 75	100 to 500	100 to 1000	> 30000
Cc1ncsc1-c1ccc([C@H](C)NC(=O)[C@@H]2C[C@@H](O)CN2C(=O)[C@@H](NC(=O)CCCCCC(=O)N2CCN(CCCNc3ccc(S(=O)(=O)NC(=O)c4ccc(N5CCN(CC6=C(c7ccc(Cl)cc7)CCC(C)(C)C6)CC5)cc4Oc4cnc5[nH]ccc5c4)cc3S(=O)(=O)C(F)(F)F)CC2)C(C)(C)C)cc1 [I-52]	50 to 75	100 to 500	100 to 1000	> 30000
Cc1ncsc1-c1ccc([C@H](C)NC(=O)[C@@H]2C[C@@H](O)CN2C(=O)[C@@H](NC(=O)CCCCCCCC(=O)N2CCN(CCCNc3ccc(S(=O)(=O)NC(=O)c4ccc(N5CCN(CC6=C(c7ccc(Cl)cc7)CC(C)(C)CC6)CC5)cc4Oc4cnc5[nH]ccc5c4)cc3S(=O)(=O)C(F)(F)F)CC2)C(C)(C)C)cc1 [I-86]	50 to 75	10 to 100	100 to 1000	> 30000
Cc1ncsc1-c1ccc([C@H](C)NC(=O)[C@@H]2C[C@@H](O)CN2C(=O)[C@@H](NC(=O)CCCCCC(=O)N2CCN(CC[C@H](CSc3ccccc3)Nc3ccc(S(=O)(=O)NC(=O)c4ccc(N5CCCN(C)CC5)cc4)cc3S(=O)(=O)C(F)(F)F)CC2)C(C)(C)C)cc1 [I-41]	< 50	500 to 1000	> 3000	> 30000
Cc1ncsc1-c1ccc([C@H](C)NC(=O)[C@@H]2C[C@@H](O)CN2C(=O)[C@@H](NC(=O)CCCCCC(=O)N2CCN(CC[C@H](CSc3ccccc3)Nc3ccc(S(=O)(=O)NC(=O)c4ccc(N5CCN(Cc6ccccc6-c6ccc(Cl)cc6)CC5)cc4)cc3[N+](=O)[O-])CC2)C(C)(C)C)cc1 [I-35]	> 75	10 to 100	> 3000	> 30000
Cc1ncsc1-c1ccc([C@H](C)NC(=O)[C@@H]2C[C@@H](O)CN2C(=O)[C@@H](NC(=O)CCCCCN(C)CCCNc2ccc(S(=O)(=O)NC(=O)c3ccc(N4CCN(CC5=C(c6ccc(Cl)cc6)CC(C)(C)CC5)CC4)cc3Oc3cnc4[nH]ccc4c3)cc2S(=O)(=O)C(F)(F)F)C(C)(C)C)cc1 [I-69]	< 50	500 to 1000	> 3000	> 30000
